Data from patent US6730792B2, “β3 adrenergic agonists” (Eli Lilly and Company, priority 2000, dated 2004).

Biological target: T1, human β3 adrenergic receptor (Homo sapiens, UniProt P13945)
T1 construct: expressed in transfected cells; host or cells: DXB-11 Chinese hamster ovary (CHO) cell line, stably transfected (phd expression vector)
Assay: whole cell receptor coupled c-AMP assay, human β3 receptor in CHO cells (EC50, Emax relative to isoproterenol)
Type: cell-based
From the text: The genes encoding the human β1-adrenergic receptor (Frielle et al., Proc. Natl. Acad. Sci., 84:7920-7924, 1987), the human β2-adrenergic receptor (Kobika et al., Proc. Natl. Acad. Sci., 84:46-50, 1987, Emorine et al., Proc. Natl. Acad. Sci., 84:6995-6999, 1987) and the human β3 adrenergic receptor (Granneman et al., Molecular Pharmacology, 44(2):264-70, 1993) are individually subcloned into a phd expression vector (Grinnell et al., Bio/Technology, 5:1189-1192, 1987) and transfected into the DXB-11 Chinese hamster ovary (CHO) cell line by calcium phosphate precipitation methodology. The stably transfected cells are grown to 95% confluency in 95% Dulbecco's modified Eagles Medium (DMEM), 5% fetal bovine serum and 0.01% proline. Media is removed and the cells are washed with phosphate buffered (pH 7.4) saline (without magnesium and calcium). Cells are then lifted using an enzyme free cell dissociation solution (Specialty Media, Lavallette, N.J.) and pelleted by centrifugation.
Cells from each of the above cell lines are resuspended and added (20,000/well) to a 96-well plate. Cells are incubated at 37° C. with representative compounds of the invention for 20 minutes in buffer (Hank's balanced salt solution, 10 mM HEPES, 0.1% BSA, 1 mM L-ascorbic acid, 0.2% dimethyl sulfoxide, 1 mm 3-isobutyl-1-methylxanthine, pH 7.4). After halting the incubation with quench buffer (50 mM Na Acetate, 0.25% Triton X-100, pH 5.8), the c-AMP level is quantified by scintillation proximity assay (SPA) using a modification of the commercially available c-AMP kit (Amersham, Arlington Heights, Ill.) with rabbit anti-cAMP antibody (ICN Biomedicals, Aurora, Ohio) for the kit.
Sigmoidal dose response curves, from the whole cell receptor coupled c-AMP assay are fit to a four parameter logistic equation using non linear regression: y=(a−d)/(1+(Dose/c)^b)+d where a and d are responses at zero and maximal dose, b is the slope factor and c is the EC50 as previously described (DeLean et al., Am. J. Physiol., 235, E97-E102, 1978). EC50 is assessed as the concentration producing 50% of the maximum response to each agonist.
Isoproterenol is accepted in the art as a non-selective β3 agonist and is widely used as a comparator in evaluating the activity of compounds. See Trends in Pharm. Sci., 15:3, 1994. The % intrinsic activity (Emax) of representative compounds of the invention is assessed relative to isoproterenol by the compound's maximal response divided by the isoproterenol maximal response times 100.

[1] = Emax ± standard error of the mean, average of at least 3 runs except where n = 1, compound tested in the isolated form listed
[2] = % intrinsic activity relative to isoproterenol maximal response, average of at least 3 runs, c-AMP in transfected CHO cells
[3] = Emax ± SEM, average of at least 3 runs except as otherwise indicated, tested as the isolated form listed

T1 sequence (P13945 whole entry): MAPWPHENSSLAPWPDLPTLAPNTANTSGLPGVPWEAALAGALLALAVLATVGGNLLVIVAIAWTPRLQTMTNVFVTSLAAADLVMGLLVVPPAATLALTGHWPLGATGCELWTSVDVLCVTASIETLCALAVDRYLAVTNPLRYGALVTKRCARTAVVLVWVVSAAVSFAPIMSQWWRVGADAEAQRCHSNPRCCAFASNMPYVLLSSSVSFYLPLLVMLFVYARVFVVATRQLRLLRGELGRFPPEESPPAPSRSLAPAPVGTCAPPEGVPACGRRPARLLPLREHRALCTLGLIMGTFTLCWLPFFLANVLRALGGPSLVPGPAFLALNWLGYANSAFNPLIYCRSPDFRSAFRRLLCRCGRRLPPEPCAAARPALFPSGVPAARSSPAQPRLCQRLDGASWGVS

SMILES | Emax (%) ± SEM [1] | also measured
CC(C)(Cc1ccc(Oc2ccc(C(N)=O)cn2)cc1)NC[C@H](O)COc1ccccc1-c1ccon1.Cl [Example 32] | 54.2 ± 5.0% | –
CCOC(=O)c1ccc(Oc2ccc(CC(C)(C)NC[C@H](O)COc3ccccc3-c3cccs3)cc2)c(Cl)c1.O=C(O)C(F)(F)F [Example 204] | 67.6 ± 4.0% | –
CC(C)(Cc1ccc(Oc2ccc(S(C)(=O)=O)cc2)cc1)NC[C@H](O)COc1ccccc1-c1cccs1.Cl [Example 383] | – | Emax (%) ± SEM [2]: 52.1 ± 5.4%
CC(C)(Cc1ccc(Oc2ccc(C#N)cn2)cc1)NC[C@H](O)COc1ccccc1-c1cscn1.Cl [Example 247] | 45.4 ± 3.4% | –
CC(C)(Cc1ccc(Oc2nc(Cl)c(Cl)cc2Cl)cc1)NC[C@H](O)COc1ccccc1-c1cccs1.O=C(O)C(F)(F)F [Example 156] | 84.9 ± 0.2% | –
Cc1ccc(-c2ccccc2OC[C@@H](O)CNC(C)(C)Cc2ccc(Oc3ncccc3C#N)cc2)s1.Cl [Example 413] | – | Emax (%) ± SEM [2]: 66.9 ± 9.2%
CC(C)(Cc1ccc(Oc2ccc(S(C)(=O)=O)cc2)cc1)NC[C@H](O)COc1ccccc1-c1ccncc1.Cl.Cl [Example 377] | – | Emax (%) ± SEM [2]: 33.0 ± 4.2%
CC(C)(Cc1ccc(Oc2ccccc2C#N)cc1)NC[C@H](O)COc1ccccc1-c1cscn1.Cl [Example 243] | 47.9 ± 3.5% | –
CC(C)(Cc1ccc(Oc2ccc(C(N)=O)nc2)cc1)NC[C@H](O)COc1ccccc1-c1cccs1.O=C(O)C(F)(F)F [Example 205] | 70.3 ± 0.3% | –
CC(C)(Cc1ccc(Oc2ccc(C(N)=O)cn2)cc1)NC[C@H](O)COc1ccccc1-c1cscn1.Cl [Example 248] | 47.5 ± 4.8% | –
CC(C)(Cc1ccc(Oc2ccc(C#N)cn2)cc1)NC[C@H](O)COc1ccccc1-c1ccncc1 [Example 373] | – | Emax (%) ± SEM [2]: 29.0 ± 6.8%
Cc1ccc(-c2ccccc2OC[C@@H](O)CNC(C)(C)Cc2ccc(Oc3ncccc3C(N)=O)cc2)s1.Cl [Example 417] | – | Emax (%) ± SEM [2]: 79.3 ± 2.4%
Cc1ccc(-c2ccccc2OC[C@@H](O)CNC(C)(C)Cc2ccc(Oc3cccnc3C#N)cc2)s1.Cl [Example 422] | – | Emax (%) ± SEM [2]: 60.1 ± 8.2%
CC(C)(Cc1ccc(Oc2ccc(C(N)=O)cc2Cl)cc1)NC[C@H](O)COc1ccccc1-c1cccs1.O=C(O)C(F)(F)F [Example 164] | 67.3 ± 3.5% | –
CC(C)(Cc1ccc(Oc2ccccc2C(N)=O)cc1)NC[C@H](O)COc1ccccc1-c1ncco1.O=C(O)C(F)(F)F [Example 365] | – | Emax (%) ± SEM [3]: 80.2 ± 5.6%
CC(=O)c1ccc(-c2ccccc2OC[C@@H](O)CNC(C)(C)Cc2ccc(Oc3ncccc3C#N)cc2)s1.O=C(O)C(F)(F)F [Example 415] | – | Emax (%) ± SEM [2]: 80.6 ± 5.7%
CC(C)(Cc1ccc(Oc2ccc(C(N)=O)cn2)cc1)NC[C@H](O)COc1ccccc1-c1ccncc1 [Example 374] | – | Emax (%) ± SEM [2]: 49.3 ± 0.3%

SMILES | Emax (%) ± SEM [1] | also measured
CC(C)(Cc1ccc(Oc2ccc(C(N)=O)cn2)cc1)NC[C@H](O)COc1ccccc1-c1ccco1.Cl [Example 412] | – | Emax (%) ± SEM [2]: 74.4 ± 7.0%
CC(C)(Cc1ccc(Oc2ccccc2C(N)=O)cc1)NC[C@H](O)COc1ccccc1-n1cccc1.Cl [Example 270] | 56.4 ± 8.3% | –
CCOC(=O)c1cccnc1Oc1ccc(CC(C)(C)NC[C@H](O)COc2ccccc2-c2ccn[nH]2)cc1 [Example 111] | 23.6 n = 1% | –
CC(C)(Cc1ccc(Oc2ncccc2C(N)=O)cc1)NC[C@H](O)COc1ccccc1N1CCNC1=O [Example 103] | 21.1 ± 0.1% | –
CC(C)(Cc1ccc(Oc2ncccc2C(N)=O)cc1)NC[C@H](O)COc1ccccc1-c1ccncc1 [Example 376] | – | Emax (%) ± SEM [2]: 48.2 ± 6.7%
CC(C)(Cc1ccc(Oc2ccc(C#N)nc2)cc1)NC[C@H](O)COc1ccccc1-c1ccon1.Cl [Example 300] | – | Emax (%) ± SEM [3]: 52.2 ± 5.9%
CC(C)(Cc1ccc(Oc2ccc(C#N)cn2)cc1)NC[C@H](O)COc1ccccc1-c1ccoc1.Cl [Example 305] | – | Emax (%) ± SEM [3]: 68.8 ± 6.5%
CC(C)(Cc1ccc(Oc2ncccc2C(N)=O)cc1)NC[C@H](O)COc1cc(Cl)ccc1-c1nnco1 [Example 87] | 14.2 n = 1% | –
CC(C)(Cc1ccc(Oc2ncccc2C(N)=O)cc1)NC[C@H](O)COc1ccccc1-c1cc2ccccc2[nH]1 [Example 21] | 48.0 ± 2.0% | –
CC(C)(Cc1ccc(Oc2ccc(Cl)nn2)cc1)NC[C@H](O)COc1ccccc1-c1ccns1.O=C(O)C(F)(F)F [Example 211] | 88.5 ± 9.3% | –
CC(C)(Cc1ccc(Oc2ncccc2C#N)cc1)NC[C@H](O)COc1ccccc1-c1ccncn1 [Example 57] | 41.8 ± 5.6% | –
CC1(C)COC(c2ccccc2OC[C@@H](O)CNC(C)(C)Cc2ccc(Oc3ncccc3C(N)=O)cc2)=N1.Cl [Example 83] | 83.5 ± 4.4% | –
CCOC(=O)c1cccnc1Oc1ccc(CC(C)(C)NC[C@H](O)COc2ccccc2-c2cccs2)cc1 [Example 107] | 84.3 ± 5.3% | –
CC(C)(Cc1ccc(Oc2ccc(C(N)=O)cn2)cc1)NC[C@H](O)COc1ccccc1-c1csnn1.O=C(O)C(=O)O [Example 44] | 22.1 ± 3.3% | –
CC(C)(Cc1ccc(Oc2ncccc2C(N)=O)cc1)NC[C@H](O)COc1ccccc1-c1nc2ccccc2s1 [Example 82] | 45.9 ± 10.7% | –
CC(C)(Cc1ccc(Oc2ccc(C(F)(F)F)cn2)cc1)NC[C@H](O)COc1ccccc1-c1cccs1.O=C(O)C(F)(F)F [Example 193] | 73.5 ± 3.2% | –

More lines, main results first:

Emax (%) ± SEM [1] | SMILES | also measured
66.2 ± 1.6% | CC(C)(Cc1ccc(Oc2ccc(S(C)(=O)=O)cc2Cl)cc1)NC[C@H](O)COc1ccccc1-c1cccs1.O=C(O)C(F)(F)F [Example 181] | –
38.9 ± 7.1% | CC(C)(Cc1ccc(Oc2ccc(C#N)cc2)cc1)NC[C@H](O)COc1ccccc1-c1ccno1.O=C(O)C(F)(F)F [Example 121] | –
14.4 n = 1% | Cn1nccc1-c1ccccc1OC[C@@H](O)CNC(C)(C)Cc1ccc(Oc2ncccc2C#N)cc1 [Example 48] | –
59.3 ± 3.2% | CC(C)(Cc1ccc(Oc2ncc(Cl)cc2Cl)cc1)NC[C@H](O)COc1ccccc1-c1ccno1.O=C(O)C(F)(F)F [Example 174] | –
58.3 ± 9.5% | CC(C)(Cc1ccc(Oc2ccc(C(N)=O)cc2Cl)cc1)NC[C@H](O)COc1ccccc1-c1ccno1.O=C(O)C(F)(F)F [Example 166] | –
68.9 ± 3.1% | CC(C)(Cc1ccc(Oc2ccccc2C#N)cc1)NC[C@H](O)COc1ccccc1-c1ccno1.O=C(O)C(F)(F)F [Example 212] | –
59.1 n = 1% | Cn1ccc(-c2ccccc2OC[C@@H](O)CNC(C)(C)Cc2ccc(Oc3ccc(C#N)cn3)cc2)n1 [Example 49] | –
74.5 ± 12.5% | CC(C)(Cc1ccc(Oc2ncccc2C#N)cc1)NC[C@H](O)COc1ccccc1-c1ccno1 [Example 53] | –
83.7 ± 3.0% | CC(C)(Cc1ccc(Oc2ncccc2C(N)=O)cc1)NC[C@H](O)COc1ccccc1-c1cccs1 [Example 68] | –
<10% | CC(C)(Cc1ccc(Oc2ccc(S(C)(=O)=O)cc2)cc1)NC[C@H](O)COc1cc(F)ccc1C1=CC(=O)OC1.Cl [Example 136] | –
46.6 ± 4.2% | CC(C)(Cc1ccc(Oc2cnccn2)cc1)NC[C@H](O)COc1ccccc1-c1ccno1.O=C(O)C(F)(F)F [Example 155] | –
57.8 ± 3.1% | CC(C)(Cc1ccc(Oc2ccncc2)cc1)NC[C@H](O)COc1ccccc1-c1nccs1.O=C(O)C(F)(F)F [Example 203] | –
34.6 ± 7.8% | CC(C)(Cc1ccc(Oc2ccc(S(C)(=O)=O)cc2)cc1)NC[C@H](O)COc1ccccc1-c1ccno1 [Example 132] | –
56.3 ± 1.4% | CC(C)(Cc1ccc(Oc2ncc(C(F)(F)F)cc2Cl)cc1)NC[C@H](O)COc1ccccc1-c1ccno1.O=C(O)C(F)(F)F [Example 160] | –
<10% | Cn1nccc1-c1ccccc1OC[C@@H](O)CNC(C)(C)Cc1ccc(Oc2ccc(S(C)(=O)=O)cc2)cc1 [Example 127] | –
47.7 ± 6.5% | CC(C)(Cc1ccc(Oc2ccc(S(C)(=O)=O)cc2)cc1)NC[C@H](O)COc1ccccc1-c1ccon1.Cl [Example 134] | –
35.1 ± 5.2% | CC(C)(Cc1ccc(Oc2ccc(C#N)cc2F)cc1)NC[C@H](O)COc1ccccc1-c1ccno1.O=C(O)C(F)(F)F [Example 189] | –
